Experimental data published in US20060069132A1, “Azolecarboxamide herbicides” (priority 2004, published 2006).

Columns and labels:
corn = test: Test B pre-/postemergence herbicide test; format: in vivo, Zea mays; settings: for Corn plant response rating: postemergence
Summary of the method: (§1)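 Plants compared with untreated controls 13–15 days post-treatment and given a visual 0–100 injury score. Applications: preemergence to seeds; postemergence at 1- to 4-leaf (2–18 cm); paddy species flooded, 2-leaf stage. Vehicle non-phytotoxic, surfactant included.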

wild oat = test: Test B postemergence herbicide test; format: in vivo, Avena fatua; settings: postemergence
Summary of the method: (§2)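 Scale 0–100: zero equals no visible effect, 100 complete control, judged by eye relative to controls. Timing: 13 to 15 days in greenhouse post-treatment. Growth stage at spraying: two leaves (paddy) or one to four leaves, 2–18 cm (postemergence).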

rice [1] = test: Test B flooded paddy test; format: in vivo, Oryza sativa; settings: 1000 g ai/ha, scale 0 to 100 (0 no effect, 100 complete control)
Summary of the method: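 Formulated test chemicals went onto postemergence plants measuring 2 to 18 cm, at one to four leaves. For the paddy assay, species had reached two leaves. Scoring took place 13–15 days later by eye, relative to untreated plants, using 0 for no effect up to 100 for full control.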

velvetleaf [2] = test: Test A pre-/postemergence herbicide test; format: in vivo, Abutilon theophrasti
Summary of the method: (§3)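 Pre: seeded sandy loam, directed soil spray, compound in non-phytotoxic solvent + surfactant. Post: 1–2-leaf plants (2–10 cm), sprayed to runoff. Greenhouse ~10 d; visual injury vs untreated, 0–100 scale.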

large crabgrass [3] = test: Test B pre-/postemergence herbicide test; format: in vivo, Digitaria sanguinalis; settings: for Crabgrass, Large plant response rating: postemergence
Summary of the method: as §1

velvetleaf [4] = test: Test B pre-/postemergence herbicide test; format: in vivo, Abutilon theophrasti; settings: for Velvetleaf plant response rating: postemergence
Summary of the method: as §1

pigweed = test: Test B pre-/postemergence herbicide test; format: in vivo, Amaranthus retroflexus; settings: for Pigweed plant response rating: postemergence
Summary of the method: as §1

blackgrass = test: Test B postemergence herbicide test; format: in vivo, Alopecurus myosuroides; settings: postemergence
Summary of the method: (§4)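 Read-out: visual comparison with controls, scored 0 to 100, where 100 means complete control and 0 no effect. Formulated chemicals were applied postemergence to plants 2–18 cm tall (1- to 4-leaf), or to flooded-paddy plants at the 2-leaf stage, then held 13 to 15 days under glass.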

giant foxtail [5] = test: Test A pre-/postemergence herbicide test; format: in vivo, Setaria faberi
Summary of the method: as §3

ducksalad = test: Test B flooded paddy test; format: in vivo, Heteranthera limosa; settings: 1000 g ai/ha, scale 0 to 100 (0 no effect, 100 complete control)
Summary of the method: as §4

barnyardgrass [6] = test: Test B flooded paddy test; format: in vivo, Echinochloa crus-galli; settings: 1000 g ai/ha, scale 0 to 100 (0 no effect, 100 complete control)
Summary of the method: as §4

large crabgrass [7] = test: Test A pre-/postemergence herbicide test; format: in vivo, Digitaria sanguinalis
Summary of the method: as §3

Surinam grass = test: Test B pre-/postemergence herbicide test; format: in vivo, Urochloa decumbens; settings: for Surinam Grass plant response rating: postemergence
Summary of the method: as §1

barnyardgrass [8] = test: Test B pre-/postemergence herbicide test; format: in vivo, Echinochloa crus-galli; settings: for Barnyardgrass plant response rating: postemergence
Summary of the method: (§5)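 Pre: seeds sown, then sprayed. Post: 1–4-leaf plants (2–18 cm) sprayed at the same time. Paddy: flooded, treated at 2-leaf stage. Formulation: non-phytotoxic solvent with surfactant. Greenhouse 13–15 days; visual 0–100 score relative to controls.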

wheat = test: Test B postemergence herbicide test; format: in vivo, Triticum aestivum; design: key to Wheat plant response rating: 0 = no effect, 100 = complete control; settings: postemergence
Summary of the method: as §2

morningglory [9] = test: Test B pre-/postemergence herbicide test; format: in vivo, Ipomoea coccinea; settings: for Morningglory plant response rating: postemergence
Summary of the method: as §5

barnyardgrass [10] = test: Test A pre-/postemergence herbicide test; format: in vivo, Echinochloa crus-galli
Summary of the method: as §3

giant foxtail [11] = test: Test B pre-/postemergence herbicide test; format: in vivo, Setaria faberi; settings: for Foxtail, Giant plant response rating: postemergence
Summary of the method: as §1

morningglory [12] = test: Test A pre-/postemergence herbicide test; format: in vivo, Ipomoea spp.
Summary of the method: as §3

rice [13] = test: Test B pre-/postemergence herbicide test; format: in vivo, Oryza sativa; settings: 0 = no effect, 100 = complete control, preemergence
Summary of the method: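 Greenhouse pot assay with simultaneous preemergence (treated seed) and postemergence (2–18 cm seedlings) applications of surfactant-containing, non-phytotoxic solvent formulations. Response scored visually 13–15 days later on a 0–100 scale, 100 meaning complete control.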

cocklebur = test: Test B pre-/postemergence herbicide test; format: in vivo, Xanthium strumarium; settings: for Cocklebur plant response rating: postemergence
Summary of the method: as §5

lambsquarters = test: Test B pre-/postemergence herbicide test; format: in vivo, Chenopodium album; settings: for Lambsquarters plant response rating: postemergence
Summary of the method: as §1

redroot pigweed = test: Test A pre-/postemergence herbicide test; format: in vivo, Amaranthus retroflexus
Summary of the method: as §3

[14] = system: small flower umbrella sedge; test: Test B flooded paddy test; format: in vivo, Cyperus difformis; settings: 1000 g ai/ha, scale 0 to 100 (0 no effect, 100 complete control)
Summary of the method: as §4

[15] = 125 g ai/ha, 0 = no effect, 100 = complete control, preemergence
[16] = 125 g ai/ha, visual rating, scale 0 (no effect) to 100 (complete control)
[17] = 500 g ai/ha, visual rating, 0 = no effect, 100 = complete control, preemergence
[18] = 500 g ai/ha, scale 0 to 100, 0 is no effect, 100 is complete control
[19] = Postemergence, 500 g ai/ha, 0 to 100 scale, 0 no effect, 100 complete control
[20] = Postemergence, 2000 g ai/ha, 0 to 100 scale, 0 no effect, 100 complete control
[21] = Preemergence, 2000 g ai/ha, visual rating, 0 to 100 scale (0 no effect, 100 complete control)
[22] = preemergence, 500 g ai/ha, visual injury, 0 to 100 scale (0 no effect, 100 complete control)

## C#CCNC(=O)c1cncc(NC(=O)c2cc(C(C)(C)C)nn2CC)n1 [Compound 289]
corn; [15]
  Corn plant response rating (0 to 100 scale): 0
corn; [16]
  Corn plant response rating: 0
corn; [17]
  Plant response rating, Corn: 0
corn; [18]
  Corn plant response rating: 0
Wild oat; [16]
  Oat, Wild plant response rating: 20
Wild oat; [18]
  Oat, Wild plant response rating: 30
Rice [1]
  Rice plant response rating: 0
Velvetleaf [2]; [19]
  Velvetleaf plant response rating: 0
Velvetleaf [2]; [20]
  Plant response rating, Velvetleaf: 5
Velvetleaf [2]; [21]
  Velvetleaf plant response rating: 20
Velvetleaf [2]; [22]
  Velvetleaf plant response rating: 0
Large crabgrass [3]; [15]
  Crabgrass, Large plant response rating (0 to 100 scale): 0
Large crabgrass [3]; [16]
  Crabgrass, Large plant response rating: 0
Large crabgrass [3]; [17]
  Plant response rating, Crabgrass, Large: 20
Large crabgrass [3]; [18]
  Crabgrass, Large plant response rating: 0
Velvetleaf [4]; [16]
  Velvetleaf plant response rating: 0
Velvetleaf [4]; [17]
  Plant response rating, Velvetleaf: 0
Velvetleaf [4]; [18]
  Velvetleaf plant response rating: 10
pigweed; [15]
  Pigweed plant response rating (0 to 100 scale): 0
pigweed; [16]
  Pigweed plant response rating: 10
pigweed; [17]
  Plant response rating, Pigweed: 100
pigweed; [18]
  Pigweed plant response rating: 20
blackgrass; [16]
  Blackgrass plant response rating: 10
blackgrass; [18]
  Blackgrass plant response rating: 10
Giant foxtail [5]; [19]
  Foxtail, Giant plant response rating: 10
Giant foxtail [5]; [20]
  Plant response rating, Foxtail, Giant: 70
Giant foxtail [5]; [21]
  Foxtail, Giant plant response rating: 40
Giant foxtail [5]; [22]
  Foxtail, Giant plant response rating: 10
ducksalad
  Ducksalad plant response rating: 0
Barnyardgrass [6]
  Barnyardgrass plant response rating: 0
Large crabgrass [7]; [19]
  Crabgrass, Large plant response rating: 20
Large crabgrass [7]; [20]
  Plant response rating, Crabgrass, Large: 20
Large crabgrass [7]; [21]
  Crabgrass, Large plant response rating: 55
Large crabgrass [7]; [22]
  Crabgrass, Large plant response rating: 0
Surinam grass; [15]
  Surinam Grass plant response rating (0 to 100 scale): 0
Surinam grass; [16]
  Surinam Grass plant response rating: 0
Surinam grass; [17]
  Plant response rating, Surinam Grass: 0
Surinam grass; [18]
  Surinam Grass plant response rating: 0
Barnyardgrass [8]; [15]
  Barnyardgrass plant response rating (0 to 100 scale): 0
Barnyardgrass [8]; [16]
  Barnyardgrass plant response rating: 0
Barnyardgrass [8]; [17]
  Plant response rating, Barnyardgrass: 0
Barnyardgrass [8]; [18]
  Barnyardgrass plant response rating: 0
wheat; [16]
  Wheat plant response rating: 20
wheat; [18]
  Wheat plant response rating: 20
Morningglory [9]; [15]
  Morningglory plant response rating (0 to 100 scale): 0
Morningglory [9]; [16]
  Morningglory plant response rating: 0
Morningglory [9]; [17]
  Plant response rating, Morningglory: 0
Morningglory [9]; [18]
  Morningglory plant response rating: 0
Barnyardgrass [10]; [19]
  Barnyardgrass plant response rating: 10
Barnyardgrass [10]; [20]
  Plant response rating, Barnyardgrass: 40
Barnyardgrass [10]; [21]
  Barnyardgrass plant response rating: 50
Barnyardgrass [10]; [22]
  Barnyardgrass plant response rating: 0
Giant foxtail [11]; [15]
  Foxtail, Giant plant response rating (0 to 100 scale): 0
Giant foxtail [11]; [16]
  Foxtail, Giant plant response rating: 20
Giant foxtail [11]; [17]
  Plant response rating, Foxtail, Giant: 0
Giant foxtail [11]; [18]
  Foxtail, Giant plant response rating: 60
Morningglory [12]; [19]
  Morningglory plant response rating: 10
Morningglory [12]; [20]
  Plant response rating, Morningglory: 20
Morningglory [12]; [21]
  Morningglory plant response rating: 15
Morningglory [12]; [22]
  Morningglory plant response rating: 0
Rice [13]; 125 g ai/ha
  Rice plant response rating (0 to 100 scale): 0
Rice [13]; 500 g ai/ha, visual rating
  Plant response rating, Rice: 0
cocklebur; [15]
  Cocklebur plant response rating (0 to 100 scale): 0
cocklebur; [16]
  Cocklebur plant response rating: 0
cocklebur; [17]
  Plant response rating, Cocklebur: 0
cocklebur; [18]
  Cocklebur plant response rating: 0
lambsquarters; [15]
  Lambsquarters plant response rating (0 to 100 scale): 0
lambsquarters; [16]
  Lambsquarters plant response rating: 0
lambsquarters; [17]
  Plant response rating, Lambsquarters: 100
lambsquarters; [18]
  Lambsquarters plant response rating: 30
Redroot pigweed; [19]
  Pigweed plant response rating: 20
Redroot pigweed; [20]
  Plant response rating, Pigweed: 50
Redroot pigweed; [21]
  Pigweed plant response rating: 75
Redroot pigweed; [22]
  Pigweed plant response rating: 0
[14]
  Sedge, Umbrella plant response rating: 0
